Experimental data published in patent US9867799B2, “Diethyl-[6-(4-hydroxycarbamoyl-phenyl-carbamoyloxy-methyl)-naphthalen-2-yl-methyl]-ammonium chloride for use in the treatment of muscular dystrophy” (ITALFARMACO S.P.A., priority 2012, dated 2018).

How the values were obtained:
dogs, rats and monkeys = assay: Repeated dose toxicity studies; assay type: in vivo; details: oral daily doses up to nine consecutive months
Experimental: To date more than 500 patients (including 29 children) have been treated with Givinostat. Repeated dose toxicity studies were carried out in dogs, rats and monkeys. Oral daily doses of the drug were administered up to nine consecutive months. […] The “no adverse effect levels” (NOAEL) ranged from 10 to 25 mg/kg/day depending on the animal species and the duration of treatment.

juvenile animals = assay: Juvenile animal toxicity (development and reproductive performance); assay type: in vivo; details: 60 mg/kg/day
mouse lymphoma = assay: Mouse lymphoma assay in vitro (genotoxicity); assay type: cell-based
[1] = Chromosomal aberration assay in vitro (genotoxicity); assay type: cell-based
[2] = Micronucleus test in vivo (genotoxicity)
[3] = UDS test in vivo (genotoxicity)
[4] = system: children with Systemic Onset Juvenile Idiopathic Arthritis; details: 1.5 mg/kg/day for twelve weeks; cited from earlier work

diethyl-[6-(4-hydroxycarbamoyl-phenyl-carbamoyloxy-methyl)-naphthalen-2-yl-methyl]-ammonium chloride [Givinostat]
tolerability / overt toxicity (dogs, rats and monkeys): well tolerated with no overt toxicity at high doses | behavioural and physical development and reproductive performance of pups (juvenile animals): did not affect the behavioural and physical development and reproductive performance of pups | genotoxic effect (mouse lymphoma): No genotoxic effect | genotoxic effect [1]: No genotoxic effect | genotoxic effect [2]: No genotoxic effect | genotoxic effect [3]: No genotoxic effect | ACR Pedi 30, 50 and 70 improvement [4]: approximately 70% | adverse effects [4]: only a limited number of mild or moderate but short lasting, adverse effects
